Assay results published in ChEMBL document CHEMBL5634145, “Discovery of novel amidobenzimidazole derivatives as orally available small molecule modulators of stimulator of interferon genes for cancer immunotherapy” (Eur J Med Chem, 2023).
Values belong to the compound of their own block, whether it stands above or below them.

Key:
[1] = Cytotoxicity against wild type human THP1-Dual cells assessed as cell viability incubated for 24 hrs by CellTiter 96 aqueous one solution assay relative to control; format: toxicity, cell-based; set-up: concentration or dose not given beside the values; conditions: read-out: Activity
[2] = Cytotoxicity against human THP1-Dual KO-STING cells assessed as cell viability incubated for 24 hrs by CellTiter 96 aqueous one solution assay relative to control; format: toxicity, cell-based; set-up: concentration or dose not given beside the values; conditions: read-out: Activity
[3] = Agonist activity at STING (unknown origin)
[4] = biological target: Stimulator of interferon genes protein (Homo sapiens, UniProt Q86WV6); assay: Agonist activity at STING in wild type human THP1-Dual cells assessed as increase in IRF-mediated immune response incubated for 24 hrs by QUANTI-Luc assay; format: cell-based
Chain of Stimulator of interferon genes protein (Q86WV6 whole entry): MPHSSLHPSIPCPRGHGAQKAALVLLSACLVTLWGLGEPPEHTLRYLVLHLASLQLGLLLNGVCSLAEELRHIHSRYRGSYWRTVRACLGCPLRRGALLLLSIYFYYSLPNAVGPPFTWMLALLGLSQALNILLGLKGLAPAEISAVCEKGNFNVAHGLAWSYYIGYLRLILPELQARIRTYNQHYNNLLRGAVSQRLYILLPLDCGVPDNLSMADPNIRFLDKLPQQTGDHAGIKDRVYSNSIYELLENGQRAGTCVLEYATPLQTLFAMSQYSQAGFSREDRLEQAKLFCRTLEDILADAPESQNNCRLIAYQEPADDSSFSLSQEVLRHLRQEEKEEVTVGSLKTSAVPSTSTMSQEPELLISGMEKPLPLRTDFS

THP1-Dual = assay: Cytotoxicity against human THP1-Dual cells assessed as reduction in cell viability at 0 to 50 uM incubated for 24 hrs by CellTiter 96 aqueous one solution assay; format: toxicity, cell-based; conditions: dose 0-50 µM
RAW264.7 = assay: Cytotoxicity against mouse RAW264.7 cells assessed as reduction in cell viability at 0 to 80 uM incubated for 24 hrs by CellTiter 96 aqueous one solution assay; format: toxicity, cell-based; conditions: raw264.7, 24 h, dose 0-80 µM
Cytochrome P450 1A2 = biological target: T1, Cytochrome P450 1A2 (Homo sapiens, UniProt P05177); assay: Inhibition of CYP1A2 in human liver microsomes using phenacetin as substrate preincubated for 5 min followed by substrate and NADPH addition and measured after 20 mins by LC-MS/MS analysis; format: ADME, Microsome
T1 sequence (P05177 whole entry): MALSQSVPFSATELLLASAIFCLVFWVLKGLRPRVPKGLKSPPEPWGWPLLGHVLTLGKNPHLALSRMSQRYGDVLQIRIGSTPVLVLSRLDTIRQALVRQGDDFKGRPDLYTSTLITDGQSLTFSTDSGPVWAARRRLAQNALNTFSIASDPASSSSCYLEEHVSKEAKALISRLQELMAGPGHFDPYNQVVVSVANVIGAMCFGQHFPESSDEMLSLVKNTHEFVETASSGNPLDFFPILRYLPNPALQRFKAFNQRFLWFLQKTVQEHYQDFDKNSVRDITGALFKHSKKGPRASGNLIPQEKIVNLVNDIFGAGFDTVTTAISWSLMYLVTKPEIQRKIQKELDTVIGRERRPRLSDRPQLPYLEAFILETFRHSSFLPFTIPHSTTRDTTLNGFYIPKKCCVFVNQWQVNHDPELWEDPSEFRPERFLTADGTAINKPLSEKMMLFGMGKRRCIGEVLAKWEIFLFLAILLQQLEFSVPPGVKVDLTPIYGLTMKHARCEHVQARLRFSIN

Cytochrome P450 2C9 = Cytochrome P450 2C9 (Homo sapiens, UniProt P11712); assay: Inhibition of CYP2C9 in human liver microsomes using tolbutamide as substrate preincubated for 5 min followed by substrate and NADPH addition and measured after 20 mins by LC-MS/MS analysis; format: ADME, Microsome
Chain of Cytochrome P450 2C9 (P11712 whole entry): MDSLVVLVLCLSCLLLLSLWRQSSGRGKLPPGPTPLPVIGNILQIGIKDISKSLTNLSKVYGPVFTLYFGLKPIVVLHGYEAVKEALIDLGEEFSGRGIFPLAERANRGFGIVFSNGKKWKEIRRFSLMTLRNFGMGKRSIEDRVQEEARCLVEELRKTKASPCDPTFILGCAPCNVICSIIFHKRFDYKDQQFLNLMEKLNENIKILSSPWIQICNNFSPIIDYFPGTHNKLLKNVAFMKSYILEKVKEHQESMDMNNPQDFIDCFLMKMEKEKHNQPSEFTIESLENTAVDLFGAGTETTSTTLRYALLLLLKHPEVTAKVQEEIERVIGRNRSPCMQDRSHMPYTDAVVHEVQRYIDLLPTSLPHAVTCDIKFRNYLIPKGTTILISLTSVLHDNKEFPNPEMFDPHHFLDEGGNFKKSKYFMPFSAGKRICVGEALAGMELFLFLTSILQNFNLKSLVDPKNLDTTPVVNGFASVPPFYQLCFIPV

Cytochrome P450 2C19 = Cytochrome P450 2C19 (Homo sapiens, UniProt P33261); assay: Inhibition of CYP2C19 in human liver microsomes using S-Mephenytoin as substrate preincubated for 5 min followed by substrate and NADPH addition and measured after 20 mins by LC-MS/MS analysis; format: ADME, Microsome
Chain of Cytochrome P450 2C19 (P33261 whole entry): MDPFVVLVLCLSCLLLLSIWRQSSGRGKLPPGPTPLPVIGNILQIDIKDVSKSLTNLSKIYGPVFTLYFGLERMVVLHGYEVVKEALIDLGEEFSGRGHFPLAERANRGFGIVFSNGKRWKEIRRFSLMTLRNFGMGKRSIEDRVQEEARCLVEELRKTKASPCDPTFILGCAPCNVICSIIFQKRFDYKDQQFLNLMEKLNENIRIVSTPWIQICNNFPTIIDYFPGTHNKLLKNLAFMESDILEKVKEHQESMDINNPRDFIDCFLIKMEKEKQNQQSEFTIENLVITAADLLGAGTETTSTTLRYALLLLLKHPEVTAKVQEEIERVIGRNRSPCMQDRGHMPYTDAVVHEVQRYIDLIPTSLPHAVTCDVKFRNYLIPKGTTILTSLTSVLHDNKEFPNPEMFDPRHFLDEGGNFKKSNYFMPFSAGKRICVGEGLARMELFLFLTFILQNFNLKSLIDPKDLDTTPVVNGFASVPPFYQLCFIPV

Cytochrome P450 2D6 = Cytochrome P450 2D6 (Homo sapiens, UniProt P10635); assay: Inhibition of CYP2D6 in human liver microsomes using dextromethorphan as substrate preincubated for 5 min followed by substrate and NADPH addition and measured after 20 mins by LC-MS/MS analysis; format: ADME, Microsome
Chain of Cytochrome P450 2D6 (P10635 whole entry): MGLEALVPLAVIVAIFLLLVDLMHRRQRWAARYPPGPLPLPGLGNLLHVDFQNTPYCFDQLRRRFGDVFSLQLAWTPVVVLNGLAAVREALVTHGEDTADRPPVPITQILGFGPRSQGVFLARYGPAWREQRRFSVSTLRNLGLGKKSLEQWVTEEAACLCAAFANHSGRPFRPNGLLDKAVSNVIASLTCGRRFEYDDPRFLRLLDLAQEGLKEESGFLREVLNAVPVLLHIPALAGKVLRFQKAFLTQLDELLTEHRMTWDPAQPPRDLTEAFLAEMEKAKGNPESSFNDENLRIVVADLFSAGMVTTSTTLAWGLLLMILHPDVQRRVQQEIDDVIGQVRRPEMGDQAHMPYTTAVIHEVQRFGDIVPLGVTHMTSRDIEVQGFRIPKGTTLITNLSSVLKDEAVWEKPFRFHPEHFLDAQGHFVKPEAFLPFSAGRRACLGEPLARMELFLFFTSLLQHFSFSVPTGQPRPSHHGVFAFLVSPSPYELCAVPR

Cytochrome P450 3A4 = Cytochrome P450 3A4 (Homo sapiens, UniProt P08684); assay: Inhibition of CYP3A4 in human liver microsomes using […] as substrate preincubated for 5 min followed by substrate and NADPH addition and measured after 20 mins by LC-MS/MS analysis; format: ADME, Microsome
Chain of Cytochrome P450 3A4 (P08684 whole entry): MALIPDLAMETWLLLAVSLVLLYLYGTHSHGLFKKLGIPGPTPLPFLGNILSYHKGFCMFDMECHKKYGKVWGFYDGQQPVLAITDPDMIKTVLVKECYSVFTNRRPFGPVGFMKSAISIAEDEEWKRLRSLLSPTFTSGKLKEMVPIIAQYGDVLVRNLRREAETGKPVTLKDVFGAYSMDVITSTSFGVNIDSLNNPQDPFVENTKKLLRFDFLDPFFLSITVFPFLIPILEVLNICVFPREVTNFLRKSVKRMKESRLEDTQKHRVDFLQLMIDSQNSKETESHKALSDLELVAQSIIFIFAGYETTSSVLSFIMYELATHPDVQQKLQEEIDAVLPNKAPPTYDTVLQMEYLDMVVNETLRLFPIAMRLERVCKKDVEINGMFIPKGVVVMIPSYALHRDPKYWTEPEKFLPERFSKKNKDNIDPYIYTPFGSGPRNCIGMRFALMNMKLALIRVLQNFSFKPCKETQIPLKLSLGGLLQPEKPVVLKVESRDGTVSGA

[5] = biological target: Voltage-gated inwardly rectifying potassium channel KCNH2 (Homo sapiens, UniProt Q12809); assay: Inhibition of hERG by non-electrophysiological analysis; format: toxicity
Chain of Voltage-gated inwardly rectifying potassium channel KCNH2 (Q12809 whole entry): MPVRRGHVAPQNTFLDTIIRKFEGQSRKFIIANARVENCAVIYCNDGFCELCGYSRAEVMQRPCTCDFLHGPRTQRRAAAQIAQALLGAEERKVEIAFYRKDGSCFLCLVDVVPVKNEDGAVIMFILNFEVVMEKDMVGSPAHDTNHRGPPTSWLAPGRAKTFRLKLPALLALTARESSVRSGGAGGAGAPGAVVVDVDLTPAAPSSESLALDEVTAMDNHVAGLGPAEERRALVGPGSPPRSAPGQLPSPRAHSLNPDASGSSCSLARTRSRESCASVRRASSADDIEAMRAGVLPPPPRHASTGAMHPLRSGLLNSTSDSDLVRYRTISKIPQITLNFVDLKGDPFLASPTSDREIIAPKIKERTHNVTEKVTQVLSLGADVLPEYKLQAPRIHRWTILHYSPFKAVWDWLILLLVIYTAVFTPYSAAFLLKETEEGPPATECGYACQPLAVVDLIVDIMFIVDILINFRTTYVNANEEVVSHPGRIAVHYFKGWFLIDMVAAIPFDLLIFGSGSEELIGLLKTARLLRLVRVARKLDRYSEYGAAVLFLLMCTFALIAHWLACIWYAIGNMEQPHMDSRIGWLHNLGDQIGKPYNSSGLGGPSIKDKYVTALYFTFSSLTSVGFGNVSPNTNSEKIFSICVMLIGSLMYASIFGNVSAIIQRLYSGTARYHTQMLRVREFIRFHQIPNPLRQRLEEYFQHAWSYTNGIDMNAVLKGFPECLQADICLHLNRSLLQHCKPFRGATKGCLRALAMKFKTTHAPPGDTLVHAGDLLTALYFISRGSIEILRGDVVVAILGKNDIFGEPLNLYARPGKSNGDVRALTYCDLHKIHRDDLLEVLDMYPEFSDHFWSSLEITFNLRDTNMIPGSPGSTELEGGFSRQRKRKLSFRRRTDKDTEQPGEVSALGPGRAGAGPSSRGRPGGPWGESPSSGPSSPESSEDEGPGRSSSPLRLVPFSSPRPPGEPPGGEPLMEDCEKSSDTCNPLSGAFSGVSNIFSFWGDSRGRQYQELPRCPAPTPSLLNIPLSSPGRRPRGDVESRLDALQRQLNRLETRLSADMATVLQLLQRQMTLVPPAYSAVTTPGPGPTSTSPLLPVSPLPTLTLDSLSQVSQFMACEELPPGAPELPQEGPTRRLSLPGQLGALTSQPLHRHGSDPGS

[6] = Metabolic stability at phase I in mouse liver microsomes assessed as remaining activity at 1 uM incubated for 30 mins in presence of NADPH by LC-MS/MS analysis; format: ADME, Microsome; conditions: read-out: Stability
[7] = Metabolic stability at phase I in human liver microsomes assessed as remaining activity at 1 uM incubated for 30 mins in presence of NADPH by LC-MS/MS analysis; format: ADME, Microsome; conditions: read-out: Stability
[8] = Stability in mouse plasma assessed as remaining activity at 5 uM incubated for 4 hrs by LC-MS/MS analysis; format: ADME, cell-free; conditions: read-out: Stability
[9] = Stability in human plasma assessed as remaining activity at 5 uM incubated for 4 hrs by LC-MS/MS analysis; format: ADME, cell-free; conditions: read-out: Stability
[10] = Plasma protein binding in mouse; format: ADME, cell-free; conditions: read-out: PPB (converted)
[11] = Plasma protein binding in human; format: ADME, cell-free; conditions: read-out: PPB (converted)
[12] = Half life in ICR mouse at 5 mg/kg, iv by LC-MS/MS analysis; format: ADME, organism-based; conditions: in vivo
[13] = Half life in ICR mouse at 20 mg/kg, po administered via oral gavage by LC-MS/MS analysis; format: ADME, organism-based; conditions: in vivo
[14] = Tmax in ICR mouse at 20 mg/kg, po administered via oral gavage by LC-MS/MS analysis; format: ADME, organism-based; conditions: in vivo
[15] = Cmax in ICR mouse at 20 mg/kg, po administered via oral gavage by LC-MS/MS analysis; format: ADME, organism-based; conditions: in vivo
[16] = Volume of distribution at steady state in ICR mouse at 5 mg/kg, iv by LC-MS/MS analysis; format: ADME, organism-based; conditions: in vivo, read-out: Vdss
[17] = Clearance in ICR mouse at 5 mg/kg, iv by LC-MS/MS analysis; format: ADME, organism-based; conditions: in vivo
[18] = AUClast in ICR mouse at 5 mg/kg, iv by LC-MS/MS analysis; format: ADME, organism-based; conditions: in vivo
[19] = AUClast in ICR mouse at 20 mg/kg, po administered via oral gavage by LC-MS/MS analysis; format: ADME, organism-based; conditions: in vivo
[20] = AUC (0 to infinity) in ICR mouse at 5 mg/kg, iv by LC-MS/MS analysis; format: ADME, organism-based; conditions: in vivo
[21] = AUC (0 to infinity) in ICR mouse at 20 mg/kg, po administered via oral gavage by LC-MS/MS analysis; format: ADME, organism-based; conditions: in vivo
[22] = Oral bioavailability in ICR mouse at 20 mg/kg administered via oral gavage by LC-MS/MS analysis; format: ADME, organism-based; conditions: in vivo
[23] = Toxicity in BALB/c mouse implanted with mouse 4T1 cells assessed as body weight loss at 16 mg/kg, po administrated every other day for 6 times and measured after 12 days; format: organism-based; conditions: in vivo, 288 h, time 12 day

Compound: Cc1ncccc1C(=O)Nc1nc2cc(C(N)=O)ccc2n1CCCCCNC(=O)OC(C)(C)C
- viability at 24 h [1]: 92.2%
- viability at 24 h [2]: 92%

Compound: CC(C)(C)OC(=O)NCCCCn1c(NC(=O)c2ccncc2)nc2cc(C(N)=O)ccc21
- viability at 24 h [1]: 86.9%
- viability at 24 h [2]: 90.6%

Compound: Cc1ncccc1C(=O)Nc1nc2cc(C(N)=O)ccc2n1CCCCNC(=O)c1ccccc1
- viability at 24 h [1]: 101%
- viability at 24 h [2]: 93.8%

Compound: Cc1ccc(C(=O)Nc2nc3cc(C(N)=O)ccc3n2CCCCNC(=O)OC(C)(C)C)cn1
- viability at 24 h [1]: 89.3%
- viability at 24 h [2]: 95.3%

- EC50 [3]: 102 µM
Compound: CCn1nc(C)cc1C(=O)/N=c1\[nH]c2cc(C(N)=O)ccc2n1C[C@@H](O)c1ccccc1

Compound: Nc1nc2c(ncn2[C@@H]2O[C@@H]3COP(=O)(O)O[C@H]4[C@@H](O)[C@H](n5cnc6c(N)ncnc65)O[C@@H]4COP(=O)(O)O[C@H]3[C@H]2O)c(=O)[nH]1
- viability at 24 h [1]: 87%
- viability at 24 h [2]: 97.2%

- EC50 [4]: 9.2 µM
Compound: CCn1nc(C)cc1C(=O)Nc1nc2cc(C(N)=O)ccc2n1CCCCn1c(NC(=O)c2cc(C)nn2CC)nc2cc(C(N)=O)ccc21
- viability at 24 h [1]: 101%
- viability at 24 h [2]: 117%

Compound: CCc1ncccc1C(=O)Nc1nc2cc(C(N)=O)ccc2n1CCCCNC(=O)OC(C)(C)C
- viability at 24 h [1]: 89.2%
- viability at 24 h [2]: 94.7%

Compound: CC(C)(C)OC(=O)NCCCCn1c(NC(=O)c2ccc(C(F)(F)F)nc2)nc2cc(C(N)=O)ccc21
- viability at 24 h [1]: 106%
- viability at 24 h [2]: 108%

Compound: Cc1ccncc1C(=O)Nc1nc2cc(C(N)=O)ccc2n1CCCCNC(=O)OC(C)(C)C
- viability at 24 h [1]: 88.5%
- viability at 24 h [2]: 87.8%

Compound: CC(C)(C)OC(=O)NCCCCn1c(NC(=O)c2cccnc2F)nc2cc(C(N)=O)ccc21
- viability at 24 h [1]: 107%
- viability at 24 h [2]: 108%

- IC50 (Cytochrome P450 1A2): > 100 µM
- IC50 (Cytochrome P450 2C9): 28.3 µM
- IC50 (Cytochrome P450 2C19): 8.8 µM
- IC50 (Cytochrome P450 2D6): 16.5 µM
- IC50 (Cytochrome P450 3A4): 10.5 µM
- remaining at 0.5 h, 1 µM [6]: 18.1%
- remaining at 0.5 h, 1 µM [7]: 27.9%
- remaining at 4 h, 5 µM [8]: 99.5%
- remaining at 4 h, 5 µM [9]: > 99.9%
- fraction unbound [10]: 0.0624
- fraction unbound [11]: 0.0211
- half-life [12]: 11.2 h
- half-life [13]: 13.3 h
- Tmax [14]: 0.42 h
- Cmax [15]: 110 ng/mL
- Vd [16]: 11.7 L/kg
- clearance [17]: 95.5 mL/min/kg
- AUC(0-t) [18]: 880 ng·h/mL
- AUC(0-t) [19]: 180 ng·h/mL
- AUC(0-inf) [20]: 900 ng·h/mL
- AUC(0-inf) [21]: 210 ng·h/mL
- bioavailability [22]: 5.23%
Compound: Cc1ncccc1C(=O)Nc1nc2cc(C(N)=O)ccc2n1CCCCNC(=O)OC(C)(C)C
- viability at 24 h [1]: 99.4%
- viability at 24 h [2]: 106%
- Activity (THP1-Dual): Non-Toxic
- Activity (RAW264.7): Non-Toxic
- IC50 [5]: > 100 µM
- Activity [23]: Non-Toxic

Compound: COc1cc(C(N)=O)cc2nc(NC(=O)c3cccnc3C)n(C/C=C/CNC(=O)OC(C)(C)C)c12
- viability at 24 h [1]: 106%
- viability at 24 h [2]: 97.5%

Compound: Cc1cncc(C(=O)Nc2nc3cc(C(N)=O)ccc3n2CCCCNC(=O)OC(C)(C)C)c1
- viability at 24 h [1]: 90.7%
- viability at 24 h [2]: 97.4%

- EC50 [4]: 29.7 µM
Compound: Cc1nc(C(F)(F)F)ccc1C(=O)Nc1nc2cc(C(N)=O)ccc2n1CCCCNC(=O)OC(C)(C)C
- viability at 24 h [1]: 106%
- viability at 24 h [2]: 97.5%

- EC50 [4]: 18 µM
Compound: Cc1ncccc1C(=O)Nc1nc2cc(C(N)=O)ccc2n1CCCCn1c(NC(=O)c2cccnc2C)nc2cc(C(N)=O)ccc21
- viability at 24 h [1]: 91%
- viability at 24 h [2]: 118%
